Consider 17 compounds from patent US20190010167A1, “INHIBITORS OF THE MENIN-MLL INTERACTION” (Vitae Pharmaceuticals, Inc., priority 2015, published 2019).

This test deals with T1, wild-type menin / MLL-AF9 fusion protein (Homo sapiens, UniProt O00255).
T1 construct: made in house; host or cells: E. coli (menin); HEK293 cleared lysate (MLL-AF9-FLAG)
T1 sequence (O00255 1-610): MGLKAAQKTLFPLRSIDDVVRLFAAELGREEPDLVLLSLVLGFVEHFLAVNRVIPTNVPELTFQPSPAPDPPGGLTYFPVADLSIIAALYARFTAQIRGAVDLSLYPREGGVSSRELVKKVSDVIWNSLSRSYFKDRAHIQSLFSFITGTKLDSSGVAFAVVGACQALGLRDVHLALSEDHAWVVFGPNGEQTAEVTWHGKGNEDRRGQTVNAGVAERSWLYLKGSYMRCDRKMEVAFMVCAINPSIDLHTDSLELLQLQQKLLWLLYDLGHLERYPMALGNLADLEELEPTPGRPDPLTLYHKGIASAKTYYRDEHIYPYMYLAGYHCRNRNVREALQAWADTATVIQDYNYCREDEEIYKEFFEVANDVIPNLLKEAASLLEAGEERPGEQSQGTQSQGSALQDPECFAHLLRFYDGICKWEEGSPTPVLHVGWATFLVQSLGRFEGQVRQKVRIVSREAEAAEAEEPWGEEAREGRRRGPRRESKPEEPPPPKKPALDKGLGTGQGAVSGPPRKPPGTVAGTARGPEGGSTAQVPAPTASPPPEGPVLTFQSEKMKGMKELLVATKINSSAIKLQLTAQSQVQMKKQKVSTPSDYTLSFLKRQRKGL
Put plainly: AlphaLISA menin/MLL binding assay, wild-type menin (Assay 1). The conditions noted are these: biotinylated wild-type menin 5 nM, MLL-AF9-FLAG lysate. The procedure:
Potencies of inhibitor compounds against menin/MLL binding were assessed by AlphaLISA assay using biotinylated (1) wild-type menin or (2) mutated menin (described in Nature (2012) Vol. 482, pp. 542-548) and MLL-AF9 fusion protein bearing a FLAG epitope at its C-terminus. Menin proteins were expressed in E. coli and covalently modified with biotin using EZ-Link™ Sulfo-NHS-Biotin (ThermoFisher Cat. No. 21217) according to manufacturer's protocol. MLL1-1,396 fused to AF91-92 and the C-terminal FLAG peptide was expressed in HEK293 cells and used as a lysate cleared at 21,000×g for 10 min.
Compounds (2 μL of solutions in DMSO) were dispensed in white 96-well half-area plates (Corning Cat. No. 3693) and incubated for 30 min at RT with 5 nM biotinylated menin and appropriate amount of MLL-AF9-FLAG lysate in 40 μL of 50 mM Tris-HCl buffer pH 7.4 containing 5% (v/v) DMSO, 50 mM NaCl, 0.01% (w/v) bovine serum albumin (BSA) and 1 mM DTT. To this incubation mixture, 40 μl of AlphaLISA anti-FLAG acceptor (PerkinElmer Cat. No. AL112C) and streptavidin donor (PerkinElmer Cat. No. 6760002) beads (10 μg/mL each) was added and incubation continued at RT for 60 min. Alpha (amplified luminescent proximity homogeneous assay) signal was measured on an Envision multi-label plate reader at the end of the incubation. All steps were conducted under dim fluorescent light.
These percent inhibition values were regressed against compound concentrations in the assay using four parameter logit non-linear curve fitting (XLFit, IDBS). The IC50 values were derived from the curve fitting as inflection points on the dose-response curves and are set out in Table 1 below.
(In general: Alpha assays give light when donor and acceptor beads are brought close together.)
Consider `N#Cc1cccc(CN2CCC3(CCN(c4ncnc5sc(CC(F)(F)F)cc45)C3)C2)c1` (centres unmarked) [Example 35, 3-((7-(6-(2,2,2-Trifluoroethyl)thieno[2,3-d]pyrimidin-4-yl)-2,7-diazaspiro[4.4]nonan-2-yl)methyl)benzonitrile], for which the IC50 (in general, the concentration at which inhibition is half-maximal) lay in the range of 100 to 1000 nM.
The compound `FC(F)(F)Cc1cc2c(N3CCC4(CC3)CN(CC3CCCC(F)(F)C3)C4)ncnc2s1` (centres unmarked) [Example 11, 4-(2-((3,3-difluorocyclohexyl)methyl)-2,7-diazaspiro[3.5]nonan-7-yl)-6-(2,2,2-trifluoroethyl)thieno[2,3-d]pyrimidine] returned an IC50 of 100 to 1000 nM.
`CCC(C)CN1CCC2(C1)CN(c1ncnc3sc(CC(F)(F)F)cc13)C2` (centres unmarked) [Example 94, 4-(6-(2-methylbutyl)-2,6-diazaspiro[3.4]octan-2-yl)-6-(2,2,2-trifluoroethyl)thieno[2,3-d]pyrimidine] returned an IC50 of 100 to 1000 nM.
Consider `CC(C)(N)CC(=O)N1CC2(C1)CN(c1ncnc3sc(CC(F)(F)F)cc13)C2` [Example 77, 3-amino-3-methyl-1-(6-(6-(2,2,2-trifluoroethyl)thieno[2,3-d]pyrimidin-4-yl)-2,6-diazaspiro[3.3]heptan-2-yl)butan-1-one], for which the IC50 lay in the range of 100 to 1000 nM.
As for `FC(F)(F)Cc1cc2c(N3CCC4(CC3)CN(CC3CCOC3)C4)ncnc2s1` (centres unmarked) [Example 5, 4-(2-((tetrahydrofuran-3-yl)methyl)-2,7-diazaspiro[3.5]nonan-7-yl)-6-(2,2,2-trifluoroethyl)thieno[2,3-d]pyrimidine], the IC50 fell in the range of 100 to 1000 nM.
The compound `CC(=O)N[C@H]1CC[C@H](CN2CCC3(CC2)CN(c2ncnc4sc(CC(F)(F)F)cc24)C3)CC1` [Example 105, N-((1r,4r)-4-((2-(6-(2,2,2-trifluoroethyl)thieno[2,3-d]pyrimidin-4-yl)-2,7-diazaspiro[3.5]nonan-7-yl)methyl)cyclohexyl)acetamide] registered an IC50 of 100 to 1000 nM.
In turn, `CC(=O)N[C@H]1CC[C@@H](CN2CCC3(CCN(c4ncnc5sc(CC(F)(F)F)cc45)C3)C2)CC1` (some centres unmarked) [Example 50, N-((1s,4s)-4-((7-(6-(2,2,2-Trifluoroethyl)thieno[2,3-d]pyrimidin-4-yl)-2,7-diazaspiro[4.4]nonan-2-yl)methyl)cyclohexyl)acetamide] gave an IC50 of 100 to 1000 nM.
`FC(F)(F)Cc1cc2c(N3CCC4(CCN(CC5CCC(F)(F)CC5)C4)C3)ncnc2s1` (centres unmarked) [Example 32, 4-(7-((4,4-difluorocyclohexyl)methyl)-2,7-diazaspiro[4.4]nonan-2-yl)-6-(2,2,2-trifluoroethyl)thieno[2,3-d]pyrimidine] yielded an IC50 of 100 to 1000 nM.
For `Cc1c(CN2CC[C@@]3(CCN(c4ccnc5ccc(CC(F)(F)F)cc45)C3)C2)ccc2[nH]c(C#N)cc12` (single isomer, unassigned) [Example 86a, 4-methyl-5-((7-(6-(2,2,2-trifluoroethyl)quinolin-4-yl)-2,7-diazaspiro[4.4]nonan-2-yl)methyl)-1H-indole-2-carbonitrile], the IC50 lay in the range of 100 to 1000 nM.
To `CCS(=O)(=O)N[C@H]1CC[C@H](CN2CC3(C2)CN(c2ncnc4sc(CC(F)(F)F)cc24)C3)CC1` [Example 71, N-((1r,4r)-4-((6-(6-(2,2,2-trifluoroethyl)thieno[2,3-d]pyrimidin-4-yl)-2,6-diazaspiro[3.3]heptan-2-yl)methyl)cyclohexyl)ethanesulfonamide] belongs 100 to 1000 nM.
To `COC(=O)N[C@H]1CC[C@@H](CN2CCC3(CCN(c4ncnc5sc(CC(F)(F)F)cc45)C3)C2)CC1` (some centres unmarked) [Example 51, Methyl ((1s,4s)-4-((7-(6-(2,2,2-trifluoroethyl)thieno[2,3-d]pyrimidin-4-yl)-2,7-diazaspiro[4.4]nonan-2-yl)methyl)cyclohexyl)carbamate] belongs 100 to 1000 nM; to `CCC(C)CN1CCC2(CC1)CN(c1ncnc3sc(CC(F)(F)F)cc13)C2` (centres unmarked) [Example 100, 4-(7-(2-methylbutyl)-2,7-diazaspiro[3.5]nonan-2-yl)-6-(2,2,2-trifluoroethyl)thieno[2,3-d]pyrimidine], 100 to 1000 nM; to `FC(F)(F)Cc1cc2c(N3CC4(CCN(C[C@H]5CC[C@H](C(F)(F)F)CC5)CC4)C3)ncnc2s1` [Example 102, 6-(2,2,2-trifluoroethyl)-4-(7-(((1r,4r)-4-(trifluoromethyl)cyclohexyl)methyl)-2,7-diazaspiro[3.5]nonan-2-yl)thieno[2,3-d]pyrimidine], 100 to 1000 nM.
`FC(F)(F)Cc1cc2c(N3CCC4(CC3)CN(CC3CCCO3)C4)ncnc2s1` (centres unmarked) [Example 4, 4-(2-((tetrahydrofuran-2-yl)methyl)-2,7-diazaspiro[3.5]nonan-7-yl)-6-(2,2,2-trifluoroethyl)thieno[2,3-d]pyrimidine]: the IC50 was not below 1000 nM.
As for `CC(C)CN1CC2(CCN(c3ncnc4ccc(CC(F)(F)F)cc34)CC2)C1` [Example 89, 4-(2-isobutyl-2,7-diazaspiro[3.5]nonan-7-yl)-6-(2,2,2-trifluoroethyl) quinazoline], the figure is not below 1000 nM.
In turn, `COC1CC(CN2CC3(CCN(c4ncnc5sc(CC(F)(F)F)cc45)CC3)C2)C1` (centres unmarked) [Example 13] registered an IC50 not below 1000 nM.
`O=C(C1CCCCN1)N1CC2(C1)CN(c1ncnc3sc(CC(F)(F)F)cc13)C2` (centres unmarked) [Example 79, piperidin-2-yl(6-(6-(2,2,2-trifluoroethyl)thieno[2,3-d]pyrimidin-4-yl)-2,6-diazaspiro[3.3]heptan-2-yl)methanone] had an IC50 of 100 to 1000 nM.
